Where two headings read alike, the source gives them in different places.
How the values were obtained:
[1] = molecular target: human cannabinoid CB1 receptor (Homo sapiens, UniProt P21554); assay: biochemical; assay type: binding; design: expressed in transfected cells; host or cells: Chinese hamster ovary (CHO) cells, membrane preparation; details: [3H]CP-55,940 radioligand, CHO cell membranes stably transfected with human CB1
Experimental: After incubation of a freshly prepared cell membrane preparation with the [^3H]-ligand, with or without addition of compounds of the invention, separation of bound and free ligand was performed by filtration over glassfiber filters. Radioactivity on the filter was measured by liquid scintillation counting.

Sequence of human cannabinoid CB1 receptor (P21554 whole entry): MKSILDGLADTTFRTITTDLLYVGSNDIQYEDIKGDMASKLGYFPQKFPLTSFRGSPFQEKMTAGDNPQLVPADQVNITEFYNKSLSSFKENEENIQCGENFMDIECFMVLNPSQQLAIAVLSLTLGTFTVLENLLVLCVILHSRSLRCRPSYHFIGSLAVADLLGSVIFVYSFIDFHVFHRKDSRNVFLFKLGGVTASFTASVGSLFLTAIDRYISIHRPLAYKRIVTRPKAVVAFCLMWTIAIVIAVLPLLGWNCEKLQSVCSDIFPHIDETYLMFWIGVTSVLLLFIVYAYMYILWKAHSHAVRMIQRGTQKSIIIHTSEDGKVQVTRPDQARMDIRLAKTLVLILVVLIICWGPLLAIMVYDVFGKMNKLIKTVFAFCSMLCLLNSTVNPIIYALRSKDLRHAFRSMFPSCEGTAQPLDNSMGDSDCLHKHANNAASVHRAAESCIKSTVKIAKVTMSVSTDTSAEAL

SMILES	melting point [°C]	Ki ([1]; read-out: hCB1 pKi (converted)) [nM]	Ki ([1]; hCB1 pKi) [nM]
CCc1c(C(=O)NC2CCCCC2)nc(-c2cc(Cl)ccc2Cl)n1-c1ccccc1	198 to 199	–	–
CCc1c(C(=O)NN2CCCCC2)nc(-c2cc(Cl)ccc2Cl)n1-c1ccccc1	207 to 208	–	–
Cc1cccnc1-c1nc(C(=O)NN2CCCCC2)c(C)n1-c1ccc(Cl)cc1	211 to 213	–	–
Cc1cccnc1-c1nc(C(=O)NC2CCCCC2)c(C)n1-c1ccc(Cl)cc1	188 to 190	–	–
O=C(NN1CCCC1)c1cn(-c2ccc(Br)cc2)c(-c2ccc(Cl)cc2Cl)n1	238 to 240	–	–
CCCCCNC(=O)c1cn(-c2ccc(Cl)cc2)c(-c2ccc(Cl)cc2OC)n1	115	–	–
CCN(CC)C(=O)c1cn(-c2ccc(Cl)cc2)c(-c2ccc(Cl)cc2Cl)n1	177 to 179	–	–
O=C(NC12CC3CC(CC(C3)C1)C2)c1cn(-c2ccc(Cl)cc2)c(-c2ccc(Cl)cc2C(F)(F)F)n1	288	–	–
O=C(NCC(F)(F)F)c1cn(-c2ccc(Cl)cc2)c(-c2ccc(Cl)cc2C(F)(F)F)n1	149	–	–
O=C(NC1CCCCC1)c1cn(-c2cccnc2)c(-c2ccc(Cl)cc2Cl)n1	195	–	–
CCCCCNC(=O)c1cn(-c2cccnc2)c(-c2ccc(Cl)cc2Cl)n1	117	–	–
Cc1c(C(=O)NC2CCCCC2)nc(-c2ccc(Cl)cc2C(F)(F)F)n1-c1ccc(Cl)cc1	212	–	–
COc1cc(Cl)ccc1-c1nc(C(=O)NN2CCCCC2)c(C)n1-c1ccc(Cl)cc1	> 256	–	–
COc1cc(Cl)ccc1-c1nc(C(=O)NC2CCCCC2)c(C)n1-c1ccc(Cl)cc1	201	–	–
Cc1c(C(=O)NC2CCCCC2)nc(-c2ccc(Cl)cc2Cl)n1-c1ccc(F)cc1	229 to 230	–	–
CCCCCNC(=O)c1nc(-c2ccccc2Cl)n(-c2cccc(F)c2)c1C	97 to 102	–	–
CCc1c(C(=O)NC2CCCCC2)nc(-c2ccc(C)n2C)n1-c1ccccc1	195 to 196	–	–
O=C(Nc1ccccc1)c1cn(-c2ccc(Cl)cc2)c(-c2ccc(Cl)cc2Cl)n1 [Example 4, 1-(4-Chlorophenyl)-2-(2,4-dichlorophenyl)-N-phenyl-1H-imidazole-4-carboxamide]	–	126	–
Cc1c(C(=O)NOC(C)(C)C)nc(-c2ccc(Cl)cc2)n1-c1ccc(Cl)cc1Cl [Example 11, N-(t-Butoxy)-2-(4-chlorophenyl)-1-(2,4-dichlorophenyl)-5-methyl-1H-imidazole-4-carboxamide]	–	501	–
COc1cc(Cl)ccc1-c1nc(C(=O)NN2CCCCC2)cn1-c1ccc(Cl)cc1 [Example 28, 1-(4-Chlorophenyl)-2-(2-methoxy-4-chlorophenyl)-N-(piperidin-1-yl)-1H-imidazole-4-carboxamide]	220	–	63.1
O=C(NN1CCCCC1)c1cn(-c2ccc(Cl)cc2)c(-c2ccc(Cl)cc2F)n1 [Example 30, 1-(4-Chlorophenyl)-2-(2-fluoro-4-chlorophenyl)-N-(piperidin-1-yl)-1H-imidazole-4-carboxamide]	217 to 218	–	25.1
O=C(NN1CCCCC1)c1cn(-c2ccc(F)cc2)c(-c2ccc(Cl)cc2Cl)n1 [Example 31, 2-(2,4-Dichlorophenyl)-1-(4-fluorophenyl)-N-(piperidin-1-yl)-1H-imidazole-4-carboxamide]	175 to 176	200	–

SMILES	melting point [°C]	Ki ([1]; read-out: hCB1 pKi (converted)) [nM]	Ki ([1]; hCB1 pKi) [nM]
O=C(NC1CCCCC1)c1cn(-c2ccc(F)cc2)c(-c2ccc(Cl)cc2Cl)n1 [Example 32, N-Cyclohexyl-2-(2,4-dichlorophenyl)-1-(4-fluorophenyl)-1H-imidazole-4-carboxamide]	184 to 185	–	25.1
O=C(NC1CCCCC1)c1cn(-c2ccc(Cl)cc2)c(-c2ccc(Cl)cc2F)n1 [Example 33, N-Cyclohexyl-2-(2-fluoro-4-chlorophenyl)-1-(4-chlorophenyl)-1H-imidazole-4-carboxamide]	157 to 159	501	–
COc1ccc(-n2cc(C(=O)NN3CCCCC3)nc2-c2ccc(Cl)cc2Cl)cc1 [Example 35, 2-(2,4-Dichlorophenyl)-1-(4-methoxyphenyl)-N-(piperidin-1-yl)-1H-imidazole-4-carboxamide]	178 to 179	–	50.1
O=C(NN1CCCCC1)c1cn(-c2cccnc2)c(-c2ccc(Cl)cc2Cl)n1 [Example 42, 2-(2,4-Dichlorophenyl)-1-(pyridin-3-yl)-N-(piperidin-1-yl)-1H-imidazole-4-carboxamide]	165 to 170	–	–
Cc1c(C(=O)NC2CCCCC2)nc(-c2ccc(Cl)cc2Cl)n1-c1ccc(C(F)(F)F)cc1 [Example 47, N-Cyclohexyl-2-(2,4-dichlorophenyl)-5-methyl-1-(4-(trifluoromethyl)phenyl)-1H-imidazole-4-carboxamide]	178 to 179	158	–
COc1ccc(-n2c(-c3ccc(Cl)cc3Cl)nc(C(=O)NC3CCCCC3)c2C)cc1 [Example 49, N-(1-cyclohexyl)-2-(2,4-dichlorophenyl)-5-methyl-1-(4-methoxyphenyl)-1H-imidazole-4-carboxamide]	160 to 161	126	–
Cc1c(C(=O)N(C)C)nc(-c2ccc(Cl)cc2Cl)n1-c1ccc(Cl)cc1 [Example 50, 1-(4-Chlorophenyl)-2-(2,4-dichlorophenyl)-N,N,5-trimethyl-1H-imidazole-4-carboxamide]	–	–	5.01
Cc1c(C(=O)NN2CCCCCC2)nc(-c2ccc(Cl)cc2Cl)n1-c1ccc(Cl)cn1 [Example 53, N-(1-Azepanyl)-1-(5-Chloropyridin-2-yl)-2-(2,4-dichlorophenyl)-5-methyl-1H-imidazole-4-carboxamide]	–	–	50.1
Cc1c(C(=O)NC2CCCCC2)nc(-c2ccc(Cl)cc2Cl)n1-c1ccc(Cl)cn1 [Example 54, 1-(5-Chloropyridin-2-yl)-N-cyclohexyl-2-(2,4-dichlorophenyl)-5-methyl-1H-imidazole-4-carboxamide]	–	–	100
CCCCCNC(=O)c1nc(-c2ccc(Cl)cc2Cl)n(-c2ccc(Cl)cn2)c1C [Example 55, 1-(5-Chloropyridin-2-yl)-2-(2,4-dichlorophenyl)-5-methyl-N-(n-pentyl)-1H-imidazole-4-carboxamide]	–	–	50.1
Cc1c(C(=O)NCc2ccc(F)cc2)nc(-c2ccc(Cl)cc2Cl)n1-c1ccc(Cl)cn1 [Example 56, 1-(5-Chloropyridin-2-yl)-2-(2,4-dichlorophenyl)-N-(4-fluorobenzyl)-5-methyl-1H-imidazole-4-carboxamide]	123 to 126	158	–
Cc1c(C(=O)NN2CCCCC2)nc(-c2ccc(Cl)cc2C(F)(F)F)n1-c1ccc(Cl)cc1 [Example 58, 1-(4-Chlorophenyl)-5-methyl-N-(piperidin-1-yl)-2-(2-trifluoromethyl-4-chlorophenyl)-1H-imidazole-4-carboxamide]	165	200	–
CCCCCNC(=O)c1nc(-c2ccc(Cl)cc2OC)n(-c2ccc(Cl)cc2)c1C [Example 59, 1-(4-Chlorophenyl)-2-(2-methoxy-4-chlorophenyl)-5-methyl-N-(n-pentyl)-1H-imidazole-4-carboxamide]	131	–	501
Cc1c(C(=O)NN2CCCCC2)nc(-c2ccc(Cl)cc2F)n1-c1ccc(Cl)cc1 [Example 66, 1-(4-Chlorophenyl)-2-(2-fluoro-4-chlorophenyl)-5-methyl-N-(piperidin-1-yl)-1H-imidazole-4-carboxamide]	195	501	–
CCCCCNC(=O)c1nc(-c2ccc(Cl)cc2Cl)n(-c2ccc(Cl)cn2)c1CC [Example 79, 1-(5-Chloropyridin-2-yl)-2-(2,4-dichlorophenyl)-5-ethyl-N-(n-pentyl)-1H-imidazole-4-carboxamide]	–	–	15.8
Cc1c(C(=O)C2NCCc3ccccc32)nc(-c2ccc(Cl)cc2Cl)n1-c1ccc(Cl)cc1 (centres unmarked) [Example 88, 1-{[1-(4-Chlorophenyl)-2-(2,4-dichlorophenyl)-5-methyl-1H-imidazol-4-yl]carbonyl}-1,2,3,4-tetrahydroisoquinoline]	143 to 146	–	–
Cc1c(C(=O)NC2CC3CCC2C3)nc(-c2ccc(Cl)cc2Cl)n1-c1ccc(Cl)cc1 (stereo not drawn) [Example 89, N-(Endo-bicyclo[2.2.1]hept-2-yl)-1-(4-chlorophenyl)-2-(2,4-dichlorophenyl)-5-methyl-1H-imidazole-4-carboxamide]	–	–	6.31
CCCCCNC(=O)c1nc(-c2ccc(Cl)cc2Cl)n(-c2ccc(Cl)cc2)c1C [Example 91, 1-(4-Chlorophenyl)-2-(2,4-dichlorophenyl)-5-methyl-N-(n-pentyl)-1H-imidazole-4-carboxamide]	–	–	31.6
CCc1c(C(=O)NC2CCCCC2)nc(-c2ccc(Cl)cc2Cl)n1-c1cc(F)ccc1F [Example 97, N-Cyclohexyl-2-(2,4-dichlorophenyl)-1-(2,5-difluorophenyl)-5-ethyl-1H-imidazole-4-carboxamide]	144 to 146	–	–
Cc1c(C(=O)NC2CCCCC2)nc(-c2ccc(Cl)cc2Cl)n1-c1cc(F)ccc1F [Example 98, N-Cyclohexyl-2-(2,4-dichlorophenyl)-1-(2,5-difluorophenyl)-5-methyl-1H-imidazole-4-carboxamide]	206 to 208	–	–
CS(=O)(=O)c1c(C(=O)NC2CCCCC2)nc(-c2ccc(Cl)cc2Cl)n1-c1ccc(Cl)cc1 [Example 119, 1-(4-chlorophenyl)-2-(2,4-dichlorophenyl)-5-methylsulfonyl-N-(cyclohexyl)-1H-imidazole-4-carboxamide]	–	–	63.1
CSc1c(C(=O)NC2CCCCC2)nc(-c2ccc(Cl)cc2Cl)n1-c1ccc(Cl)cc1 [Example 121, 1-(4-chlorophenyl)-2-(2,4-dichlorophenyl)-5-methylsulfanyl-N-(cyclohexyl)-1H-imidazole-4-carboxamide]	–	–	63.1
